Measurements from ChEMBL document CHEMBL5143593 (Eur J Med Chem, 2022).

Experiments:
[1] = biological target: T1, 5-hydroxytryptamine receptor 3A (Cavia porcellus, UniProt O70212); assay: Antagonist activity at 5-HT3 receptor in guinea-pig ileum assessed as inhibition of 5HT-induced contraction; format: tissue-based
T1 sequence (O70212 whole entry): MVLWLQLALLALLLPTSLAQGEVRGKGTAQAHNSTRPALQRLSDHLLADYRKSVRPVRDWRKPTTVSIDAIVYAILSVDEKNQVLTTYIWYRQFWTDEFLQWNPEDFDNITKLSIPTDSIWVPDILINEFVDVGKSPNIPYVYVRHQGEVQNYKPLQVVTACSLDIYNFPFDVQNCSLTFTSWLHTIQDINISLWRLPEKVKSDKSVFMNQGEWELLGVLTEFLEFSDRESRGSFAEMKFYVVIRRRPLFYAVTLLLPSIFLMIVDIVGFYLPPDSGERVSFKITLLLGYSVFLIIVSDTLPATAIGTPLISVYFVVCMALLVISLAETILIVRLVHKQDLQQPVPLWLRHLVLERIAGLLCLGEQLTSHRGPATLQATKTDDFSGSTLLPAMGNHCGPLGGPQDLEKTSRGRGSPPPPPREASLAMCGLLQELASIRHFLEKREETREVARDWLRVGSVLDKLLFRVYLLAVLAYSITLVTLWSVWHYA

D(2) dopamine receptor = D(2) dopamine receptor (Homo sapiens, UniProt P14416); assay: Displacement of [3H]-raclopride from human D2L receptor expressed in HEK293 cells measured after 1 hr by Microbeta plate reader method; format: cell-based
[2] = Permeability of compound at pH 7.4 by PAMPA assay
[3] = Cytotoxicity against CHO-K1 cells measured after 24 hrs by MTT assay; format: toxicity, cell-based, Cricetulus griseus; settings: Chinese hamster
[4] = biological target: 5-hydroxytryptamine receptor 2A (Homo sapiens, UniProt P28223); assay: Displacement of [3H]-ketanserin from human 5-HT2A receptor expressed in CHO-K1 cells measured after 1.5 hrs by Microbeta plate reader method; format: cell-based
[5] = biological target: T2, 5-hydroxytryptamine receptor 1A (Homo sapiens, UniProt P08908); assay: Displacement of [3H]-8-OH-DPAT from human 5-HT1A receptor expressed in HEK293 cells measured after 1 hr by Microbeta plate reader method; format: cell-based
T2 sequence (P08908 whole entry): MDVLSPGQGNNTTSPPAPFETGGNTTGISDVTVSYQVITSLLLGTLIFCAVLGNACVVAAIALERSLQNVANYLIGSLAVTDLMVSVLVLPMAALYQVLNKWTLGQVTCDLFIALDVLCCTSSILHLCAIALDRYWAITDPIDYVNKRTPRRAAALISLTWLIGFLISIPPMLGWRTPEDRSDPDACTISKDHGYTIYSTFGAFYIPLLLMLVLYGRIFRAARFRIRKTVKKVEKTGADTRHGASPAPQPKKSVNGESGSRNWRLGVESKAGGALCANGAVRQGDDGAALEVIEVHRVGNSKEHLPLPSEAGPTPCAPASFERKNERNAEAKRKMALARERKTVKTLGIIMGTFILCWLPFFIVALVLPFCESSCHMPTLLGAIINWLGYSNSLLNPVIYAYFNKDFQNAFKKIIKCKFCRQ

[6] = biological target: T3, 5-hydroxytryptamine receptor 3A (Homo sapiens) (UniProt P46098); assay: Competitive binding affinity towards 5-HT3 receptor (unknown origin); settings: filed as antagonist
T3 sequence (whole entry): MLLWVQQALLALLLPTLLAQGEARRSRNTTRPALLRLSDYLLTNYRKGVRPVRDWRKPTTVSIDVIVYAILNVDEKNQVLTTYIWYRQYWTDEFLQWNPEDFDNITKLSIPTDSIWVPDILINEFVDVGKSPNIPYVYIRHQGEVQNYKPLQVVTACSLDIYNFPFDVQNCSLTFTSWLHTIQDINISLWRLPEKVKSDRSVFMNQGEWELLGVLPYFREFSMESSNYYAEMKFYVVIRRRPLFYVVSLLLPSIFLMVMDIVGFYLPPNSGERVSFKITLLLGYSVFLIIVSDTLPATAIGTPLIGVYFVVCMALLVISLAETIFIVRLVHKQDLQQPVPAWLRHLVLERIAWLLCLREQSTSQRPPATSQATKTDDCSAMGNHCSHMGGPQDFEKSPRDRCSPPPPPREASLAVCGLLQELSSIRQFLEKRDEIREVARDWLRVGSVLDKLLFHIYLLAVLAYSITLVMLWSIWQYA

[7] = biological target: 5-hydroxytryptamine receptor 7 (Homo sapiens, UniProt P34969); assay: Displacement of [3H]-5-CT from human 5-HT7b receptor expressed in HEK293 cells measured after 1 hr by Microbeta plate reader method; format: cell-based
[8] = Half-life in male Wistar rat brain at 2 mg/kg, ip; format: ADME, organism-based
[9] = Cmax in male Wistar rat plasma at 2 mg/kg, ip; format: ADME, organism-based; parameters: dose 2 mg/kg, route ip
[10] = Toxicity in male Wistar rat assessed as abnormalities in kidney at 2 mg/kg, ip; format: organism-based; settings: in vivo
[11] = Toxicity in male Wistar rat assessed as effect on ALT level at 2 mg/kg, ip; format: organism-based; settings: in vivo
[12] = Tmax in male Wistar rat brain at 2 mg/kg, ip; format: ADME, organism-based
[13] = Cmax in male Wistar rat brain at 2 mg/kg, ip; format: ADME, organism-based; parameters: dose 2 mg/kg, route ip
[14] = Toxicity in male Wistar rat assessed as abnormalities in liver at 2 mg/kg, ip; format: organism-based; settings: in vivo
[15] = MRT in male Wistar rat plasma at 2 mg/kg, ip; format: ADME, organism-based
[16] = Toxicity in male Wistar rat assessed as effect on AST level at 2 mg/kg, ip; format: organism-based; settings: in vivo
[17] = AUC in male Wistar rat plasma at 2 mg/kg, ip; format: ADME, organism-based; parameters: dose 2 mg/kg, route ip; settings: in vivo
[18] = Half-life in male Wistar rat plasma at 2 mg/kg, ip; format: ADME, organism-based
[19] = Tmax in male Wistar rat plasma at 2 mg/kg, ip; format: ADME, organism-based
[20] = Toxicity in male Wistar rat assessed as adverse effects at 2 mg/kg, ip; format: organism-based; settings: in vivo
[21] = Toxicity in male Wistar rat assessed as effect on creatine kinase level in plasma at 2 mg/kg, ip; format: organism-based; settings: in vivo
[22] = Toxicity in male Wistar rat assessed as maximum tolerated dose administered intraperitoneally; settings: in vivo, route ip
[23] = MRT in male Wistar rat brain at 2 mg/kg, ip; format: ADME, organism-based
[24] = AUC in male Wistar rat brain at 2 mg/kg, ip; format: ADME, organism-based; parameters: dose 2 mg/kg, route ip; settings: in vivo

Chain of D(2) dopamine receptor (P14416 whole entry): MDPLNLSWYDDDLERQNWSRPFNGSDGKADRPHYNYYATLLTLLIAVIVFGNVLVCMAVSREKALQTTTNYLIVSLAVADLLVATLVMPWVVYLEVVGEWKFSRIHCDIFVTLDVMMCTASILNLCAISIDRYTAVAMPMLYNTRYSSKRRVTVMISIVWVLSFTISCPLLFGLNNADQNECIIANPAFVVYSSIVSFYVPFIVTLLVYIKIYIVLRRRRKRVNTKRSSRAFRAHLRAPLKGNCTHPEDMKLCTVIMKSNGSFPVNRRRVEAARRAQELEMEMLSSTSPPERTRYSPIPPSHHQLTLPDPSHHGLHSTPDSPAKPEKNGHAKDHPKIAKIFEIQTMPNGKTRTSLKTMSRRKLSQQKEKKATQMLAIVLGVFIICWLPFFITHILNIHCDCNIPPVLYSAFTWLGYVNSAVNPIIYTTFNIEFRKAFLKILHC
Chain of 5-hydroxytryptamine receptor 2A (P28223 whole entry): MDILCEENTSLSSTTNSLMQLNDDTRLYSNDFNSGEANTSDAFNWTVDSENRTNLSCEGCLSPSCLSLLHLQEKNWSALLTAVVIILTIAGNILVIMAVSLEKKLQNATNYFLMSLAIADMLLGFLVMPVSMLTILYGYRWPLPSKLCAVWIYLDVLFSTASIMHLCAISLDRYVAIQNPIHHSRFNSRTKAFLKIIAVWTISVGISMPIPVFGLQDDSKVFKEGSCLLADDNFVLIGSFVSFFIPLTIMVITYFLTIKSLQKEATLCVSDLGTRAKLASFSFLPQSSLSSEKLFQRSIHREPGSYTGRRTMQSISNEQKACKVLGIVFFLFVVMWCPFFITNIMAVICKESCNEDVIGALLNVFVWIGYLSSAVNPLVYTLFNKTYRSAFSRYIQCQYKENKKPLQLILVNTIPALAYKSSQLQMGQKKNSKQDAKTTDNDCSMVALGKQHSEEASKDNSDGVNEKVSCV
Chain of 5-hydroxytryptamine receptor 7 (P34969 whole entry): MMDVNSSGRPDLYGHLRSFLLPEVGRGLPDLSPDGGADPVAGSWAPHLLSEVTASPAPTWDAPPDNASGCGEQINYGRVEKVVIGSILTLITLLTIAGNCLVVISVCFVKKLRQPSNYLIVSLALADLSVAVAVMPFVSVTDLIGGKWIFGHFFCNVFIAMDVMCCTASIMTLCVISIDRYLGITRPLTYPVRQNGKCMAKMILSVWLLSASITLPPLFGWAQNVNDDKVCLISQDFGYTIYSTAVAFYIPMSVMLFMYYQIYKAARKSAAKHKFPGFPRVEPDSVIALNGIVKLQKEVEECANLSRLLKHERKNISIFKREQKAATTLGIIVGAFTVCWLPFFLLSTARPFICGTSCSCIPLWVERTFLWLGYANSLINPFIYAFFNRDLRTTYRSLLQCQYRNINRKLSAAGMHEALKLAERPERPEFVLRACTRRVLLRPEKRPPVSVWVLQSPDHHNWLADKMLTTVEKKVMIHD

CN1CCN(C2=Nc3cc(Cl)ccc3Nc3ccccc32)CC1 [CLOZAPINE]
IC50 [1]: 110 µM

O=C(c1ccccc1)N1CCN(CCCN2CCN(c3ccccc3)CC2)CC1
Ki (D(2) dopamine receptor): 2.1 µM | Papp [2]: 20 ×10⁻⁶ cm/s | IC50 at 24 h [3]: 1300 µM | Ki [4]: 6.5 µM

N#Cc1cccnc1N1CCN(CCCCOc2ccc3c(c2)NC(=O)CC3)CC1
Ki (D(2) dopamine receptor): 2.1 µM | Papp [2]: 12 ×10⁻⁶ cm/s | IC50 at 24 h [3]: 1000 µM | Ki [4]: 7.4 µM

Cc1nccn1CC1CCc2c(c3ccccc3n2C)C1=O (stereo not drawn) [ONDANSETRON]
Ki (D(2) dopamine receptor): > 10 µM | Ki [5]: > 10 µM | pKb [6]: 7.36 | Ki [7]: > 1 µM

CN1CCN(c2nc3ncccc3cc2C#N)CC1
Kb ([1]; read-out: pA2 (converted)): 0.0398 µM

N#Cc1cccnc1N1CCN(CCCN2CCN(c3cccc(Cl)c3Cl)CC2)CC1
half-life [8]: 4.39 h | Cmax [9]: 97.9 nM | Ki [5]: 0.019 µM | Activity [10]: Non-Toxic | Papp [2]: 5.9 ×10⁻⁶ cm/s | Activity [11]: Non-Toxic | Tmax [12]: 1 h | IC50 [1]: 0.3 µM | Cmax [13]: 266 nM | Activity [14]: Non-Toxic | Ki [4]: 0.47 µM | MRT [15]: 3.79 h | Activity [16]: Non-Toxic | AUC [17]: 10886.71 nmol·min/L | half-life [18]: 1.67 h | Ki [7]: 0.57 µM | Tmax [19]: 3 min | Activity [20]: Non-Toxic | Activity [21]: Non-Toxic | MTD [22]: 0.2 mg/kg | MRT [23]: 7.65 h | AUC [24]: 88483.21 nmol·min/L

Cn1nc(C(=O)N2CCN(CCN3CCN(c4cccc(Cl)c4Cl)CC3)CC2)c2ccccc21
Ki (D(2) dopamine receptor): 0.13 µM | Papp [2]: 6.8 ×10⁻⁶ cm/s | IC50 [1]: 1 µM | IC50 at 24 h [3]: 45 µM | Ki [4]: 1.8 µM

N#Cc1cccnc1N1CCN(CCCOc2ccc3c(c2)NC(=O)CC3)CC1
Ki (D(2) dopamine receptor): 0.081 µM | Papp [2]: 14 ×10⁻⁶ cm/s | pKb [6]: 5 | IC50 at 24 h [3]: 350 µM | Ki [4]: 5.3 µM

O=C(c1ccccn1)N1CCN(CCCN2CCN(c3cccc(Cl)c3Cl)CC2)CC1
Ki (D(2) dopamine receptor): 0.082 µM | Papp [2]: 17 ×10⁻⁶ cm/s | pKb [6]: 5.3 | IC50 at 24 h [3]: 290 µM | Ki [4]: 2.3 µM

O=C(c1ccccc1)N1CCN(CCCN2CCN(c3cccc(Cl)c3Cl)CC2)CC1
Ki (D(2) dopamine receptor): 0.12 µM | Papp [2]: 23 ×10⁻⁶ cm/s | IC50 [1]: > 3 µM | IC50 at 24 h [3]: 110 µM | Ki [4]: 1.7 µM

COc1ccccc1N1CCN(CCCNC(=O)c2cnccn2)CC1
Ki (D(2) dopamine receptor): 0.86 µM | Papp [2]: 25 ×10⁻⁶ cm/s | IC50 at 24 h [3]: > 500 µM | Ki [4]: 35.8 µM

COc1ccccc1N1CCN(CCCN2CCN(C(=O)c3ccccn3)CC2)CC1
Ki (D(2) dopamine receptor): 0.59 µM | Papp [2]: 8.7 ×10⁻⁶ cm/s | IC50 at 24 h [3]: 1900 µM
